From patent US20100099698A1, “Compositions for Improving Skin Conditions Comprising Matrine or Its Oxidized Derivatives” (Biospectrum Inc., priority 2007, published 2010) come the findings set out here.

Structures are written as SMILES.

For one data set, the system named is human skin. The data set is described as follows: 24-hour cumulative patch test (Finn chamber), cumulative skin irritation. The settings on record: for Average reaction level: 9 patches, 30 adults, safe if below 3. Type of data set: in vivo. As to the method: In order to find out whether matrine and oxymatrine are safe for use on human skin, a skin safety test was conducted. Suitable for this was a cumulative skin irritation test.
Squalene-based preparations containing matrine and oxymatrine in amounts of 1%, 5%, and 10% were applied in patches 9 times to the upper arms of 30 healthy adults once every other day for a total time period of 24 hours. This 24-hour cumulative patch test was conducted to determine whether matrine and oxymatrine irritates the skin or not.
The Finn chamber (Epitest Ltd, Finland) was chosen as the patching method. The above preparation for external use on the skin was dropped into each chamber in an amount of 15 μl, and a patch was applied.
Average reaction level=[{(Reaction index x reaction level)/No. of test subjects×maximum points (4 points)}×100]÷No. of test (9 times) Equation 2
Points were marked in accordance with reaction level, for example, ± for 1 point, + for 2 points, and ++ for […]. The composition can be considered safe if the average reaction level is below 3.

The test system of data set [1] is collagen (Type 1 collagen) biosynthesis. The data set is described as follows: Collagen synthesis: procollagen type I C-peptide (PICP) EIA in medium of treated fibroblasts. As to conditions: 24 hr, human fibroblasts. Type of data set: cell-based. As for the experimental part:
Human fibroblasts (commercially available from pacific) were seeded into a 6-well plate (2×10^5 cells/well) and the well plate was incubated in a 5% CO2 incubator for 24 hr at 37° C. After 24 hr, the medium in each well was removed and samples were treated with various concentrations, followed by incubating again for 24 hr. Following incubation, the cell medium was collected and was used as samples. To measure cytotoxicity of samples to fibroblasts, MIT reagent (1 mg/ml) was added to each well in 1/10 fold volume of the remaining medium, incubated for 3 hr and the medium was eliminated. The medium was dissolved in DMSO and its absorbance at 540 nm was measured.
The extent of collagen synthesis was determined by measuring the amount of procollagen type I C-peptide (PICP) in cell medium using Procollagen Type I C-peptide EIA kit (MK101, Takara, Kyoto, Japan). The method was performed in accordance with manufacturer's protocol.

The next data set concerns the target T1, tyrosinase (Mus musculus, UniProt P11344).
T1 construct: This cell pellets were lysated using lysis buffer, centrifuged at 12,000 rpm for 10 min and the supernatant was collected; endogenous in cells; host or cells: B16 F1 mouse melanoma cells (Korean Cell Line Bank)
T1 sequence (P11344 19-533): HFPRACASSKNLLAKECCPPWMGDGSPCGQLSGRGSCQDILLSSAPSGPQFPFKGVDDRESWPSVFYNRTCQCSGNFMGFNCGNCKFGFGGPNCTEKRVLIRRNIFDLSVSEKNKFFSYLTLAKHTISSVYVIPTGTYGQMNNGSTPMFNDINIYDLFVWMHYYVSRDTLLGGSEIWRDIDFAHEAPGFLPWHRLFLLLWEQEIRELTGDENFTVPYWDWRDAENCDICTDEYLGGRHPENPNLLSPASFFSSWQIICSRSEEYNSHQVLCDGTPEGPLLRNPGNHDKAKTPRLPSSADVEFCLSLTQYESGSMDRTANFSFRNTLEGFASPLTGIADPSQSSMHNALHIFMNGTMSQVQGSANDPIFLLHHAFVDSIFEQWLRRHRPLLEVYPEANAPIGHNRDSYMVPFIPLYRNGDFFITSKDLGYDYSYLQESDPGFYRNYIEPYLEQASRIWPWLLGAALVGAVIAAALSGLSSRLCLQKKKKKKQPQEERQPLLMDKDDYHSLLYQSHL
The data set is described as follows: Inhibition of intracellular tyrosinase activity in melanoma cells. Type of data set: cell-based, Murine. As to conditions: B16-F1, read-out: Inhibitory rate of intracellular tyrosinase activity (%). As for the experimental part:
After measuring the inhibition of melanin production by matrine and oxymatrine using B16 mouse melanoma cells (Korean Cell Line Bank), the measurement was compared with that for the inhibition of intracellular tyrosinase activities by arbutin, known as a melanin production inhibitor.
Murine melanoma (B-16 F1) cells were seeded into each well of a 6-well plate (1×10^5 cells/well) in DMEM containing 10% FBS (fetal bovine serum) and the cells were cultured to about more than 80% adherence by incubating in a CO2 incubator under conditions of 37° C. and 5.0% CO2. After cultivation, the medium was removed and samples were replaced in medium diluted at suitable concentration, followed by incubating for 3 days under conditions of 37° C. and 5.0% CO2. […] The cells removing medium were washed with PBS (phosphate buffer saline) and treated with trypsin to collect cells. Number of the collected cells was calculated using hematocytometer, centrifuged at 5,000 to 10,000 rpm for 10 min and the supernatant was eliminated, thereby obtaining pellets. This cell pellets were lysated using lysis buffer, centrifuged at 12,000 rpm for 10 min and the supernatant was collected. Then, the cell solution was measured for absorbance at 492 nm using microplate reader and the activity of tyrosinase per cell constant number was estimated.

The nature of data set [2]: Anti-oxidation: removal of superoxide anion generated by xanthine oxidase (SOD Assay Kit-WST). Type of data set: biochemical. As for the experimental part:
This experiment evaluates anti-oxidation activity of sample by observing removal of superoxide anion generated by xanthine oxidase. The experiment was performed using the kit (SOD Assay Kit-WST) purchased from Dojindo (JP) in accordance with manufacture's protocol.

For a further data set, the system named is pigmentation of skin. Nature of the data set: Skin whitening of UV-induced pigmentation, chromameter L* value. Type of data set: in vivo, brown guinea pigs. As to conditions: for Whitening effects (ΔL): topical once or twice a day for 50 days, UV-pigmented abdominal skin. As for the experimental part: A whitening effect of matrine and oxymatrine was measured using brown guinea pigs (Charles River Laboratories, Inc.), known to increase its pigmentation upon exposure to ultraviolet light, like in humans. To cause pigmentation in the brown guinea pig by ultraviolet (UV), aluminum foil with square windows of 3×3 cm^2 was adhered to hair-removed abdominal skin of brown guinea pig, and then UV light was irradiated thereon with a SE lamp (wavelength 290-320 nm, Toshiba) (total irradiation energy=1350 mJ/cm^2). After UV irradiation, the aluminum foil was removed and samples (matrine, oxymatrine or albutin) were applied as the following method. […] From the maximum, samples were applied. Applications performed once or twice a day for 50 days. […] The control with only the solvent was applied to another site. Occurrence of cumulative irritation also was examined. The degree of pigmentation of skin was determined using a chromameter (CR2002, MINOLTA, JP) to estimate the effects of applied samples. L*a*b* colorimetric system was used to classify color and L* value was used as standard in the present invention. The L* value was corrected using white board standard and was measured more than five times at one site, repeatedly. Pigmentation was evenly distributed. Skin color differences (ΔL*) between application initial point and application terminal point were obtained and then using these values, their effects of the applied samples were estimated. ΔL*=L* value at […] after application-L* value at application initial day. Equation 1 ΔL* values were obtained both at sample application site and control application site and compared, whereby the effects of the whitening substances can be estimated.

Where [3] appears, read: 5% in squalene, Week 1, of 30 subjects.
[4] abbreviates: 10% in squalene, Week 1, of 30 subjects.

For `O=C1CCC[C@@H]2[C@H]3CCCN4CCC[C@@H](CN12)[C@@H]34` [Matrine, matrine], the Average reaction level in the data set with human skin (1% in squalene) is 0; in the data set on human skin (5% in squalene), 0.09; with human skin (10% in squalene), 0.18. Moreover, the “No. of test subjects with reaction, 2nd, ±” value with human skin (1% in squalene, Week 1, of 30 subjects) was determined as 0; in the data set with human skin (setting [3]), 0; in the data set on human skin (setting [4]), 0. The results for the “No. of test subjects with reaction, 1st, ±” value with human skin (setting [3]) and with human skin (setting [4]) were 1 and 2, respectively. In addition, the “Increasing rate of collagen synthesis (%)” value in data set [1] (1 μM) stood at 20%; in data set [1] (10 μM) it was 23%; in data set [1] (50 μM) it was 40%. Also, the inhibition at 10 µM on tyrosinase was 13%. Also, at tyrosinase, the inhibition at 100 µM stood at 32%. For the same compound, the inhibition at 500 µM on tyrosinase worked out at 37%. Moreover, the figures for the “Removal rate of superoxide anion (%)” value in data set [2] (10 μM), in data set [2] (100 μM) and in data set [2] (500 μM) were 6%, 12% and 24%, respectively. In addition, the entries for the “Whitening effects (ΔL)” value in the data set on pigmentation of skin (0.2 %) and in the data set on pigmentation of skin (1.0 %) were 0.38 and 0.53, respectively. The “Occurrence of cumulative irritation” value in the data set on pigmentation of skin (brown guinea pig skin, application for 50 days) is given as “not observing the occurrence of cumulative irritation”.
Turning to `O=C1CCC[C@@H]2[C@H]3CCC[N+]4([O-])CCC[C@@H](CN12)[C@@H]34` (stereo partly shown) [Oxymatrine, oxymatrine], the “No. of test subjects with reaction, 1st, ±” value in the data set on human skin (human, in vivo) is on record as 2; in the data set on human skin (in vivo), “−”. Further, in the data set with human skin (human, in vivo), the “No. of test subjects with reaction, 2nd, ±” value was determined as 0. For the same compound, the “Increasing rate of collagen synthesis (%)” value was determined as 11% in data set [1] (1 μM), 15% in data set [1] (10 μM) and 22% in data set [1] (50 μM). In addition, the inhibition at 10 µM at tyrosinase is 11%. On tyrosinase, the inhibition at 100 µM turned out to be 29%. On tyrosinase, the inhibition at 500 µM turned out to be 34%. Further, the results for the “Removal rate of superoxide anion (%)” value in data set [2] (10 μM), in data set [2] (100 μM) and in data set [2] (500 μM) were 4%, 17% and 32%, respectively. Moreover, the “Whitening effects (ΔL)” value in the data set with pigmentation of skin (0.2 %) amounted to 0.24; in the data set with pigmentation of skin (1.0 %), 0.50.
